Here are results for 13 compounds from patent US20240174648A1, “Small Molecule Compound” (Technoderma Medicines Pte Ltd, priority 2019, published 2024).

The structures appear in SMILES notation. Bounds are passed on as bounds.

Holding throughout (assay type): biochemical
In one experiment the target is Tyk2 (Homo sapiens, UniProt P29597). Briefly: JAK kinase inhibition assay (EZ Reader, peptide substrate phosphorylation) - Tyk2. The settings on record: Tyk2 kinase 1 nM; 8 concentration points, max 10 μM. In outline: (§1)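 Microfluidic mobility-shift detection of fluorescent peptide substrate phosphorylation, with JAK1 at 20 nM and JAK2, JAK3 and Tyk2 each at 1 nM final, in 20 mM HEPES pH 7.4, 10 mM MgCl2, 1 mM DTT. Reactions run at room temperature to 20–30% conversion, then EDTA-stopped. Compounds tested at 8 three-fold dilutions from 10 μM top final; IC50 from conversion curves.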

A further experiment deals with JAK1 (Homo sapiens, UniProt P23458). Briefly: JAK kinase inhibition assay (EZ Reader, peptide substrate phosphorylation) - JAK1. The following applies: JAK1 kinase 20 nM; 8 concentration points, max 10 μM. An outline of the steps:
as §1

The next experiment addresses JAK2 (Homo sapiens, UniProt O60674). Put plainly: JAK kinase inhibition assay (EZ Reader, peptide substrate phosphorylation) - JAK2. The following applies: JAK2 kinase 1 nM; 8 concentration points, max 10 μM. The source says: (§2) Assay for Identifying Inhibitory Effects of Compounds on JAK Kinases
(§3) Janus kinases (JAK), including JAK1, JAK2, JAK3 and Tyk2, transduce a cytokine-mediated signal through a JAK-STAT pathway. The kinases are 120-140 kDa in size and have 7 determined homology regions: JH1 to JH7. JH1 is an important region for enzymatic activity and has typical characteristics of tyrosine kinases. Phosphorylation of tyrosine leads to a change in the conformation of JAK protein, thereby promoting binding of substrate. The JAK-STAT system includes three main parts: receptors penetrating a cell membrane, Janus kinases binding to the receptors, and signal transducers and activators of transcription (STAT) for transmitting signals to a nucleus and DNA. When cytokines bind to receptors, JAK phosphorylates the receptors and attracts STAT proteins. The STAT proteins are also phosphorylated and combined with one another to form dimers. The dimers enter the nucleus and bind to DNA, thereby leading to gene transcription.
(§4) EZ Reader from PerkinElmer can be used to detect the phosphorylation of polypeptide substrates catalyzed by kinases. The device is based on microfluidic techniques, and can directly detect fluorescently labeled substrates and products. The separation step is achieved by controlling the pressure and electric field strength in the microfluidic chip. In kinase assays, a product conversion ratio is usually controlled to be 20-30%. A biological test is used to identify inhibitory effects of compounds on JAKs.
(§5) Compound powder was dissolved in DMSO, sealed and stored in a freezer under −20° C. The in-house compound Ref1 was used as a positive control for JAK1, JAK2 and Tyk2 tests, and Ref2 was used as a positive control for JAK3 tests.
(§6) S2.8. Assay buffer: 20 mM HEPES buffer, pH 7.4, 10 mM magnesium chloride, 0.01% bovine serum albumin BSA, 0.0005% Tween-20 and 1 mM dithiothreitol solution.
(§7) S2.9. Stop buffer: 180 mM HEPES buffer, 20 mM ethylenediaminetetraacetic acid and 0.2% coating reagent 3.
(§8) S2.10. Separation buffer: 100 mM HEPES buffer, 10 mM ethylenediaminetetraacetic acid, 0.0005% Tween 20, 0.1% coating reagent 3 and 1% dimethyl sulfoxide.
The compound was dissolved in dimethyl sulfoxide and diluted to 10 mM concentration, a certain volume of solution was taken and diluted to 0.6 mM concentration, 10 μL of the 0.6 mM dilution was added to a 384-well microplate, and then was diluted 3-fold with a total of 8 concentration points.
Positive control (HPE1): Ref1, final concentration: 10 μM […]
(§9) Negative control (ZPE): DMSO, final content: 1.6%
(§10) Compounds: maximum final concentration: 10 μM; 3-fold dilution, 8 concentration points and 2 duplicates.
(§11) S4.1. 250 nL of the compound was added to each well of the assay microplate by using ECHO, and centrifuged at 1000 rpm for 1 minute.
(§12) S4.2. 5 μL of the assay buffer was added and agitated for a few seconds to fully dissolve the compound.
(§13) S4.3. 5 μL of 3× substrate solution and 5 μL of 3× kinase solution were added and centrifuged at 800 rpm for 1 minute.
(§14) S4.4. Final concentrations of JAK1, JAK2, JAK3 and Tyk2 kinases in the reaction system were 20 nM, 1 nM, 1 nM and 1 nM respectively.
(§15) S4.5. Incubation at room temperature, where kinases had time differences, and different batches of kinases had time differences.
(§16) S4.6. When 20%-30% of the reaction completed, 15 μL of stop buffer was added to stop the reaction, and centrifuged at 1000 rpm for 2 minutes.
(§17) S4.7. The microplates were placed on EZ Reader for reading.
(§18) S4.8. Readings on EZ Reader were calculated by using a peak height, where product conversion ratio (%)=product/(product+substrate)*100.
(§19) 5. Data Processing: IC50 calculation
(§20) A graphing software Xlfit was used to form a concentration curve of the test compound, and an IC50 value was calculated.
(§21) “A” means “≥10 μM”; “B” means “≥1 μM and <10 μM”; “C” means “≥0.1 μM and <1 μM”; and “D” means “<0.1 μM”.

The next experiment addresses T1, JAK3 (Homo sapiens, UniProt P52333).
T1 sequence (P52333 1-1124): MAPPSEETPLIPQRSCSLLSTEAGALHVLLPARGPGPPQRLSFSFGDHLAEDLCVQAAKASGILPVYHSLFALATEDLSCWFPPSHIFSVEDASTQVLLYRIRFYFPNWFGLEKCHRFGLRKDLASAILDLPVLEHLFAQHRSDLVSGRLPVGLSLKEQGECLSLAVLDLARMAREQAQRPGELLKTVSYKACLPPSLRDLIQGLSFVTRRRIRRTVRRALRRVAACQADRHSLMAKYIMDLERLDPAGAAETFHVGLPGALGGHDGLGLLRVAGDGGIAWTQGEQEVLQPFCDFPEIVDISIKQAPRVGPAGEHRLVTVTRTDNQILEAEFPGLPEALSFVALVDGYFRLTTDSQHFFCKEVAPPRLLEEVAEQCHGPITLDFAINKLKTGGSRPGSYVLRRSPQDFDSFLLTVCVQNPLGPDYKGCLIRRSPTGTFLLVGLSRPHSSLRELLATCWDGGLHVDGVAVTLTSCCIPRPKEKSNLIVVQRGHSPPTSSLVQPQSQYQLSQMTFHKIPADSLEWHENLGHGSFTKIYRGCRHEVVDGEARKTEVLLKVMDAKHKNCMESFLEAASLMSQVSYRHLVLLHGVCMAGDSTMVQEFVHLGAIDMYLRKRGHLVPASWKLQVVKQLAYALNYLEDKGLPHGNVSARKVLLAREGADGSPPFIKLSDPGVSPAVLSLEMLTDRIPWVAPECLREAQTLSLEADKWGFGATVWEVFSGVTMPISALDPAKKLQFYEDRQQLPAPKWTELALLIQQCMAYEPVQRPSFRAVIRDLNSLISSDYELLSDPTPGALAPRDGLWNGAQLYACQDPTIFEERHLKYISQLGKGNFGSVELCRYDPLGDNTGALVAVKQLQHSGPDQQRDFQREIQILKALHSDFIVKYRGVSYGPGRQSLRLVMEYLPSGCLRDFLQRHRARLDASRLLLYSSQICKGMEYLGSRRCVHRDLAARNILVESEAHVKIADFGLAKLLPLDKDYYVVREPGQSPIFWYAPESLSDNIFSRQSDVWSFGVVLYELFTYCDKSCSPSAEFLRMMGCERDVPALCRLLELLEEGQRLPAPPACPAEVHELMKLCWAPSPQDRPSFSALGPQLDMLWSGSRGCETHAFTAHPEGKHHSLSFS
Briefly: JAK kinase inhibition assay (EZ Reader, peptide substrate phosphorylation) - JAK3. The settings on record: JAK3 kinase 1 nM; 8 concentration points, max 10 μM.
Source text: as §2, §3, §4, §5, §6, §7, §8
The compound was dissolved in dimethyl sulfoxide and diluted to 10 mM concentration, a certain volume of solution was taken and diluted to 0.6 mM concentration, 10 μL of the 0.6 mM dilution was added to a 384-well microplate, and then was diluted 3-fold with a total of 8 concentration points. […]
Positive control (HPE1): Ref2, final concentration: 10 μM
as §9, §10, §11, §12, §13, §14, §15, §16, §17, §18, §19, §20, §21

Chain of JAK2 (O60674 whole entry): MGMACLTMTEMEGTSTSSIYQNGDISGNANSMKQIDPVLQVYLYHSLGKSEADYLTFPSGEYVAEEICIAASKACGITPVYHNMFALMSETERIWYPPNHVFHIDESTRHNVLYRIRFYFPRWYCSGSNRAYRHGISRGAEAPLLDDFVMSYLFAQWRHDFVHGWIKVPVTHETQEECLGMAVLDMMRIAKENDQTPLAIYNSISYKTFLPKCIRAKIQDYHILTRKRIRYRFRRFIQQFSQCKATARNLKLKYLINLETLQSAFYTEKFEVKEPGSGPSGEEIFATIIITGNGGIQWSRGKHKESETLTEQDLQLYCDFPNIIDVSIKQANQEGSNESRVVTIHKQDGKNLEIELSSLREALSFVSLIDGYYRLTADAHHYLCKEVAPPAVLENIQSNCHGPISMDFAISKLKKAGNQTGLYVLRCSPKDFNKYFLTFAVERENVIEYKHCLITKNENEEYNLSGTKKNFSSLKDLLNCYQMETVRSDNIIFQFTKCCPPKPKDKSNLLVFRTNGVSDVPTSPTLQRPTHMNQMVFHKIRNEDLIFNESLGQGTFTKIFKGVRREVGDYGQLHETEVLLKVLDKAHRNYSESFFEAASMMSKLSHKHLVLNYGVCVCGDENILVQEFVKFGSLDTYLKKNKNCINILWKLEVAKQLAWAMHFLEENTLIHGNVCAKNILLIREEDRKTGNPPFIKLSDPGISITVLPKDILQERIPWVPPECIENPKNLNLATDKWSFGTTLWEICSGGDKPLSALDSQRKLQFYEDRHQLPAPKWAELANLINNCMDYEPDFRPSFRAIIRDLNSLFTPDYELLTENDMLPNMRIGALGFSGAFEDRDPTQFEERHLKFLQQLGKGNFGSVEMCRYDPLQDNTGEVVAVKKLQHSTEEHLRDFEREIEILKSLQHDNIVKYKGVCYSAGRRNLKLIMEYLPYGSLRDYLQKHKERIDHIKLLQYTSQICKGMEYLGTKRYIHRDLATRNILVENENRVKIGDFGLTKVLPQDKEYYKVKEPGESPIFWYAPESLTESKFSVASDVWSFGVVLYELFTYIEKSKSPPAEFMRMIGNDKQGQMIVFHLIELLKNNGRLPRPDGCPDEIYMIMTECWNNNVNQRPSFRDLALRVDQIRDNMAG
Chain of Tyk2 (P29597 whole entry): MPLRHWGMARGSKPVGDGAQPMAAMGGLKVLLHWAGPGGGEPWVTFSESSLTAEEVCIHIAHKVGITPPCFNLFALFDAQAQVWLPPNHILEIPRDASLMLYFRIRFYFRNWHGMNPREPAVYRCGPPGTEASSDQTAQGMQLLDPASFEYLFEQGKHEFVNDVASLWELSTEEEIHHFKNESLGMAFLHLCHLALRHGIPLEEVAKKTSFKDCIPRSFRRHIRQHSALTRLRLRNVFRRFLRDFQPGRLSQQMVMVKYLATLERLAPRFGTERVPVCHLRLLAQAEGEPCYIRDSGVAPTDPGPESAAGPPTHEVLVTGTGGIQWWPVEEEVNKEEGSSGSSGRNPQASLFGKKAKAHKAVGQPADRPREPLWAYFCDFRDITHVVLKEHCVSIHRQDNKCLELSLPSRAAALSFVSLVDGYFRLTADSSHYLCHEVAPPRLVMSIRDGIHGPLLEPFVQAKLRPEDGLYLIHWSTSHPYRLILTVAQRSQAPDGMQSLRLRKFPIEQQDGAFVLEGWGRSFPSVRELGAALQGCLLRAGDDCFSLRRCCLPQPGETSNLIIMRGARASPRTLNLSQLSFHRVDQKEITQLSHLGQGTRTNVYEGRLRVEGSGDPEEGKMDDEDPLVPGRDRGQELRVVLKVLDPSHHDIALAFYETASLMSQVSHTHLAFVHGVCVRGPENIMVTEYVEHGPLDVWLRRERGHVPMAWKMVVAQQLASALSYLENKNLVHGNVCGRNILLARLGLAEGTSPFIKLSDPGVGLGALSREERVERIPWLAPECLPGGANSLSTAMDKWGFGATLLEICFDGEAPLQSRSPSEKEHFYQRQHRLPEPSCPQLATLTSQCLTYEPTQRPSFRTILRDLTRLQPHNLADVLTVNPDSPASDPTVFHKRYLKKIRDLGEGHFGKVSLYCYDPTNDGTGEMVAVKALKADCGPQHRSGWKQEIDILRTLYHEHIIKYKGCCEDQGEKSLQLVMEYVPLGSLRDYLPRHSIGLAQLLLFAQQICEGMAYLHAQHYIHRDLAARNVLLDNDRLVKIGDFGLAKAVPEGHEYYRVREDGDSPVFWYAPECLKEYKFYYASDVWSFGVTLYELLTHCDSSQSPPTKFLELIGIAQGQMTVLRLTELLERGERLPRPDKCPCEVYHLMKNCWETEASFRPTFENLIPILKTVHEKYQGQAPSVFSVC
Chain of JAK1 (P23458 whole entry): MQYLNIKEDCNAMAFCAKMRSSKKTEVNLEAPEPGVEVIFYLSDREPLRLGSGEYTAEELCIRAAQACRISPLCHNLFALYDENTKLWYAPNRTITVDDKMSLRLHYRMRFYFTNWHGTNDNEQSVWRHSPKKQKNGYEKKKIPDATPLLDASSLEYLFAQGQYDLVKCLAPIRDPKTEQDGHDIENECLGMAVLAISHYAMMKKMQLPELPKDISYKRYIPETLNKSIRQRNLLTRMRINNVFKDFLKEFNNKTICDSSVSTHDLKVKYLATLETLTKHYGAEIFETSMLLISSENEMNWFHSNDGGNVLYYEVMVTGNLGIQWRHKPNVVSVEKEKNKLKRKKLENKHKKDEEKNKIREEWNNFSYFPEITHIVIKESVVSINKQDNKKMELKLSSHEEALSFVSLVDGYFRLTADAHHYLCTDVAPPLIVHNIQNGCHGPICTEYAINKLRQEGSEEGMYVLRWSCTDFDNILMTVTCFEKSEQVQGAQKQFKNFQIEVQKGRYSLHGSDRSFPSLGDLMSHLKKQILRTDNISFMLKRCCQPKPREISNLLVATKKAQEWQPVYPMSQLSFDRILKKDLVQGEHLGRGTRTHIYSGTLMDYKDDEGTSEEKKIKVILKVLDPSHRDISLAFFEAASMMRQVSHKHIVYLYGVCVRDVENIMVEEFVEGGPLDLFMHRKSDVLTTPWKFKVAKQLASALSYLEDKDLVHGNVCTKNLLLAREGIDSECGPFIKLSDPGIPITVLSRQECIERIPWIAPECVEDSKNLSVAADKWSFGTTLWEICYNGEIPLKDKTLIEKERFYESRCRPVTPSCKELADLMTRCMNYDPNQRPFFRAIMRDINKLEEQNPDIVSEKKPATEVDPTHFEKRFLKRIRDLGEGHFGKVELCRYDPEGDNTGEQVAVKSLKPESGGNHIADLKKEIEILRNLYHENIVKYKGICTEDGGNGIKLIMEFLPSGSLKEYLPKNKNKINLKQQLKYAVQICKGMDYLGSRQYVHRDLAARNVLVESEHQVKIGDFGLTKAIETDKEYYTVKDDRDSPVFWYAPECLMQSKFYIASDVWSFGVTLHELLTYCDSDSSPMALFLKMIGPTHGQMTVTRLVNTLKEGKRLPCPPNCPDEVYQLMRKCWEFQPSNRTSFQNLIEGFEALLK

As usually defined, the IC50 is the point on the concentration scale where inhibition reaches its midpoint. The low end stands for inhibition by little substance, the high end for a need for much substance. Consider `Cn1cc(Nc2nccc(-c3ccc(NC(=O)C4(F)CC4)cc3)n2)cn1` [TDM-180803, 1-fluoro-N-(4-(2-((1-methyl-1H-pyrazol-4-yl)amino)pyrimidin-4-yl)phenyl)cyclopropane-1-carboxamide], for which the half-inhibitory concentration (IC50) at Tyk2 was 0.1 to 1 µM; at JAK1, 0.1 to 1 µM; against JAK2, 0.1 to 1 µM; on JAK3 it was at least 10 µM.
For the compound `Cn1cc(Nc2nccc(-c3ccc(NC(=O)CC4CC4)cc3)n2)cn1` [TDM-180804, 2-cyclopropyl-N-(4-(2-((1-methyl-1H-pyrazol-4-yl)amino)pyrimidin-4-yl)phenyl)acetamide], the concentration for half-maximal inhibition (IC50) at Tyk2 was 0.1 to 1 µM; against JAK1, 0.1 to 1 µM; on JAK2 it was 0.1 to 1 µM; against JAK3, 1 to 10 µM.
`Cn1cc(Nc2nccc(-c3ccc(NC(=O)C(F)F)cc3)n2)cn1` [TDM-180805, 2,2-difluoro-N-(4-(2-((1-methyl-1H-pyrazol-4-yl)amino)pyrimidin-4-yl)phenyl)acetamide]: the IC50 against Tyk2 was in the range of 0.1 to 1 µM; against JAK1 it was 0.1 to 1 µM; at JAK2, 0.1 to 1 µM; against JAK3, 1 to 10 µM.
In the case of `Cn1cc(Nc2nccc(-c3ccc(NC(=O)C4CCC4)cc3)n2)cn1` [TDM-180813, N-(4-(2-((1-methyl-1H-pyrazol-4-yl)amino)pyrimidin-4-yl)phenyl)cyclobutanemethyl], the IC50 was 1 to 10 µM against Tyk2, 0.1 to 1 µM on JAK1, 0.1 to 1 µM against JAK2 and at least 10 µM against JAK3.
For the compound `COCCC(=O)Nc1ccc(-c2ccnc(Nc3cnn(C)c3)n2)cn1` [TDM-180814, 3-methoxy-N-(5-(2-((1-methyl-1H-pyrazol-4-yl)amino)pyrimidin-4-yl)pyridin-2-yl)propanamide], the IC50 against Tyk2 lay in the range of 1 to 10 µM; at JAK1, 0.1 to 1 µM; on JAK2, 0.1 to 1 µM; against JAK3, 1 to 10 µM.
Take `Cn1cc(Nc2nccc(-c3ccc(NC(=O)CC4CC4)nc3)n2)cn1` [TDM-180818, 2-cyclopropyl-N-(5-(2-((1-methyl-1H-pyrazol-4-yl)amino)pyrimidin-4-yl)pyridin-2-yl)acetamide]: the IC50 lay in the range of 0.1 to 1 µM on Tyk2, 0.1 to 1 µM against JAK1, 0.1 to 1 µM against JAK2 and 1 to 10 µM against JAK3.
For `Cn1cc(Nc2nccc(-c3ccc(NC(=O)C4CC4)nc3)n2)cn1` [TDM-180819, N-(5-(2-((1-methyl-1H-pyrazol-4-yl)amino)pyrimidin-4-yl)pyridin-2-yl)cyclopropylcarboxamide], the IC50 lay within 0.1 to 1 µM at Tyk2, 0.1 to 1 µM against JAK1, 0.1 to 1 µM against JAK2 and 1 to 10 µM on JAK3.
In the case of `Cn1cc(Nc2nccc(-c3ccc(NS(=O)(=O)Cc4ccccc4)cc3)n2)cn1` [TDM-180820, N-(4-(2-((1-methyl-1H-pyrazol-4-yl)amino)pyrimidin-4-yl)phenyl)-1-phenylmethanesulfonamide], the IC50 against Tyk2, at JAK1, at JAK2 and against JAK3 was below 0.1 µM in each case.
As to `Cn1cc(Nc2nccc(-c3ccc(NC(=O)C4(F)CC4)nc3)n2)cn1` [TDM-180821, 1-fluoro-N-(5-(2-((1-methyl-1H-pyrazol-4-yl)amino)pyrimidin-4-yl)pyridin-2-yl)cyclopropane-1-carboxamide], the IC50 against Tyk2 was 0.1 to 1 µM; at JAK1, 0.1 to 1 µM; on JAK2, 0.1 to 1 µM; against JAK3 it was at least 10 µM.
For the compound `Cn1cc(Nc2nccc(-c3ccc(NC(=O)C4CC4(F)F)nc3)n2)cn1` (stereo not shown) [TDM-180822, 2,2-difluoro-N-(5-(2-((1-methyl-1H-pyrazol-4-yl)amino)pyrimidin-4-yl)pyridin-2-yl)cyclopropane-1-carboxamide], the IC50 against Tyk2 is below 0.1 µM; at JAK1 it was below 0.1 µM; against JAK2, below 0.1 µM; against JAK3, 0.1 to 1 µM.
Turning to `Cn1cc(Nc2nccc(-c3ccc(NC(=O)C4CCC4)nc3)n2)cn1` [TDM-180823, N-(5-(2-((1-methyl-1H-pyrazol-4-yl)amino)pyrimidin-4-yl)pyridin-2-yl)cyclobutanemethyl], the half-maximal inhibitory concentration (IC50) against Tyk2 is 1 to 10 µM; against JAK1, 0.1 to 1 µM; on JAK2, 1 to 10 µM; at JAK3, 1 to 10 µM.
Turning to `CN1CCN(c2ccc(-c3ccnc(Nc4cnn(C)c4)n3)cc2)CC1` [TDM-180828], the IC50 on Tyk2 is 1 to 10 µM; against JAK1, 1 to 10 µM; against JAK2, 1 to 10 µM; against JAK3, at least 10 µM.
For `Cn1cc(Nc2nccc(-c3ccc(NC(=O)CC(F)(F)F)nc3)n2)cn1` [TDM-180830, 3,3,3-trifluoro-N-(5-(2-((1-methyl-1H-pyrazol-4-yl)amino)pyrimidin-4-yl)pyridin-2-yl)propanamide], the IC50 against Tyk2 is 0.1 to 1 µM; at JAK1, below 0.1 µM; on JAK2, 0.1 to 1 µM; against JAK3, 0.1 to 1 µM.
